{"source": "paper PMC9863691", "about": "“A Novel Ferroptosis Inhibitor UAMC-3203, a Potential Treatment for Corneal Epithelial Wound” (Pharmaceutics, 2022)", "origin": "cited, not measured here", "key": {"[1]": {"tested_on": "ferroptosis", "set-up": "method as in PMID 30354101", "conditions": "read-out: in vitro potency IC50 (ferroptosis); cited from earlier work"}, "[2]": {"tested_on": "human corneal epithelial cell line", "set-up": "method as in PMID 34535730", "conditions": "after exposure to cigarette smoke and heated tobacco products; cited from earlier work"}, "[3]": {"conditions": "human, microsomes; cited from earlier work"}}}
{"smiles": "CCOC(=O)c1ccc(NC2CCCCC2)c(N)c1", "note": "[Fer-1, Ferrostatin-1, reference compound]", "values": [{"measurement": "IC50", "setting": "[1]", "result": 33, "unit": "nM"}, {"measurement": "effect on cell death and cell viability", "setting": "[2]", "result": "reduced cell death and improved cell viability"}, {"measurement": "t1/2 in human microsome", "setting": "[3]", "result": 6, "unit": "min"}]}
